This is an account of results in patent US11464763B2, “Parasiticidal compositions comprising an isoxazoline active agent, methods and uses thereof” (BOEHRINGER INGELHEIM ANIMAL HEALTH USA INC., priority 2011, dated 2022).

This assay relates to Haematobia irritans. Briefly: Pour-on efficacy against Haematobia irritans (horn fly) in cattle (Example 14). Type of assay: in vivo. Conditions: for % Reduction: Group 2: pour-on 10% in DES, 1 ml/10 kg. The method, then: The efficacy of a pour-on formulation of the invention comprising isoxazoline Compound A was tested and compared with an untreated control. Two healthy, female Angus crossbread cattle of one year of age weighing between 224 to 330 kg were used in each study group. Cattle in Group 1 were untreated (control) and cattle in Group 2 were treated with a pour-on formulation comprising Compound A at a concentration of 10% (w/v) in DES at a dose of 1 ml/10 kg once on Day 0. The formulation was applied by measuring the required amount of the solution into a marked disposable syringe and applying the material evenly along the mid-line of the back of each animal from the withers to the tail head. Each animal was infested with approximately 200 horn flies released into each of the animal rooms on Day 1, approximately 24 hours post treatment. Approximately 200 horn flies were released again on Days 7, 14, 21, 28 and 36. Horn fly counts were performed at 5 hours and 24 hours after each infestation. Tables 14A and 14B below show the efficacy of the pour-on formulation of the invention.

Molecules are shown by their SMILES.

`O=C(CNC(=O)c1ccc(C2=NOC(c3cc(Cl)cc(C(F)(F)F)c3)(C(F)(F)F)C2)c2ccccc12)NCC(F)(F)F` (centres unmarked) [Compound A, 4-[5-[3-chloro-5-(trifluoromethyl)phenyl]-4,5-dihydro-5-(trifluoromethyl)-3-isoxazolyl]-N-[2-oxo-2-[(2,2,2-trifluoroethyl)amino]ethyl]-1-naphthalanecarboxamide]: the “Efficacy against horn flies” value (24 hours after infestation through the end of the study (day 36)) is “at least 90%”. Moreover, the “% Reduction” value reads like this: (Day 1 (5 h)) 81.2%; (Day 2 (24 h)) 99.6%; (Day 7 (5 h)) 84.2%; (Day 8 (24 h)) 99.7%; (Day 14 (5 h)) 89.5%; (Day 15 (24 h)) 99.2%. Further, the “% Reduction” value is, setting by setting: (Day 21 (5 h)) 67.6%; (Day 22 (24 h)) 97.4%; (Day 28 (5 h)) 11.7%; (Day 29 (24 h)) 90.4%.
